According to patent US20190183900A1, “COMPOSITION FOR PROLIFERATION, DIFFERENTIATION PROMOTION, OR SENESCENCE INHIBITION OF STEM CELLS, CONTAINING JAK1 INHIBITOR AS ACTIVE INGREDIENT” (UNIVERSITY OF ULSAN FOUNDATION FOR INDUSTRY COOPERATION, priority 2016, published 2019):

Legend:
stem cells [1] = assay: real time PCR of senescence, stemness, proliferation and TLR3 signaling genes; type: cell-based; conditions: pre-treatment before poly IC
Protocol: The present inventors have confirmed the expression of proteins involved in proliferation and differentiation promotion of stem cell and stemness increase according to tofacitinib treatment using real time PCR. For this, cells were treated with TRIzol reagent to lyse the cells, and treated with chloroform to separate the aqueous solution layer containing the RNA. The separated aqueous solution was treated with isopropanol to precipitate RNA and centrifuged to extract RNA only. […] Real-time PCR was performed using the CFX Connect Real-Time PCR Detection System (Bio-rad) and primers used were shown in Table 1. Relative mRNA expression levels were analyzed using the comparative threshold cycles (2-^Ct) method.

stem cells [2] = assay: Western blotting of senescence, stemness, proliferation and TLR3 signaling proteins; type: cell-based; conditions: JAK1 inhibitor pretreated 2 hours before poly IC 1 ug/ml, 2 days after poly IC
Protocol: More specifically, the stem cells were plated in a 10 cm dish (3×10^5 cells/dish) and treated with poly IC (1 ug/ml) one day later. […] After 2 days of poly IC treatment, western blotting was performed for analyzing the protein expression. For this, the cells were treated with RIPA lysis buffer (1% Np-40, 0.5% Na-deoxycholate, 0.4% SDS, 0.15 M NaCl, 0.05 M Tris-HCl (pH 8), Halt Protease and Phosphatase Inhibitor Cocktail (78440, Thermo Scientific)) and reacted in ice for 30 minutes to extract the cells. The cell lysate was centrifuged and the supernatant was collected and quantified using bicinchoninic acid protein assay kit (23225, Thermo Scientific). 10 ug of the protein extract was separated by 12% SDS-PAGE and transferred to a nitrocellulose membrane. After reacting for 1 h in blocking buffer (0.1% Tween 20, 5% BSA in tris buffered saline) at room temperature (RT), the primary antibody was treated and reacted overnight at 4° C. […] After washing three times with TBST solution, peroxidase-conjugated secondary antibody was reacted for 1 hour at RT and protein bands were analyzed using C-DiGit Blot Scanner (LI-COR).

stem cells [3] = assay: SA-b-gal staining of poly IC-induced inflammatory senescence; type: cell-based; conditions: tofacitinib 1 ug/ml pretreated 2 hours before poly IC 1 ug/ml; measured 2 days after poly IC
Protocol: More specifically, stem cells were plated in 6 wells (2×10^4 cells/well) and treated with poly IC (1 ug/ml) one day later. […] After 2 days of the poly IC treatment, the degree of senescence was measured using senescence cells histochemical staining kit (CS0030, Sigma). For this, the plate was washed twice with PBS and fixed with fixation buffer (2% formaldehyde, 0.2% glutaraldehyde, 7.04 mM Na2HPO4, 1.47 mM KH2PO4, 0.137 M NaCl, and 2.68 mM KCl) for 6 minutes and reacted with staining buffer (6 mM Potassium Ferricyanide, 6 mM Potassium Ferrocyanide, 1 mg/ml X-gal Solution in phosphate buffer (pH 6)) at 37° C. for 24 hours. The number of b-galactoxidase-positive cells was measured by microscopic observation and the degree of cellular senescence was shown in a graph.

stem cells [4] = conditions: FACS analysis and real time PCR; pre-treatment of tofacitinib before poly IC
Protocol: More specifically the stem cells were treated with trypsin/EDTA and separated into single cells and mouse anti-human HLA-ABC (555553, BD Biosciences) was reacted at RT for 1 hour and washed three times and then analyzed using a FACS calibur instrument (BD Biosciences).

stem cells [5] = assay: real time PCR of TGF-b and HGF, proteins that inhibit T cell activity; type: cell-based; conditions: pre-treatment of tofacitinib before poly IC
Protocol: For this, cells were treated with TRIzol reagent to lyse the cells, and treated with chloroform to separate the aqueous solution layer containing the RNA. The separated aqueous solution was treated with isopropanol to precipitate RNA and centrifuged to extract RNA only. The extracted RNA was quantified using nanodrop. 2 ug of RNA was synthesized using TOPscript cDNA synthesis kit (RT200, Enzynomics) as a cDNA mixture and used as a template for real time PCR. […] Relative mRNA expression levels were analyzed using the comparative threshold cycles (2-^Ct) method.

stem cells [6] = assay: BrdU assay of cell survival rate after poly IC; type: cell-based; conditions: tofacitinib 1 ug/ml pretreated 2 hours before poly IC 1 ug/ml; BrdU ELISA 2 days after poly IC
Protocol: More specifically, cells were plated in 96 wells (1×10^3 cells/well) and treated with poly IC (1 μg/ml) one day later. […] After 2 days of poly IC treatment, cell survival rate was measured using BrdU cell proliferation ELISA (11647229001, Roche). For this, the BrdU labeling solution was treated at 10 μl/well for 4 hours at 37° C. Then, fixdenat buffer was treated by 200 ul/well for 30 minutes to immobilize the cells and reacted with 100 ul/well of anti BrdU-POD solution for 90 minutes. Thereafter, 100 ul of the substrate solution was treated, the OD value at 370 nm wavelength was measured by ELISA, and the cell survival rate was plotted.

| Structure (SMILES) | increase in expression of TLR3 signaling-related proteins (TLR3, IL6) (stem cells [1]) | mRNA expression of the protein associated with senescence (PCNA), stemness (EZH2, BMI-1) and proliferation (survivin, CyclinD1) (stem cells [1]) | expression of proteins associated with senescence (PCNA), stemness (EZH2, BMI-1), proliferation (survivin, CyclinD1) (stem cells [2]) | increase in expression of TLR3 signaling-related proteins (TLR3, IL6) (stem cells [2]) | inflammatory senescence induced by poly IC (b-galactoxidase-positive cells) (stem cells [3]) | increase of immunogenicity-related proteins HLA-A and HLA-B by poly IC treatment (stem cells [4]) | decrease of TGF-b and HGF by treatment of poly IC (stem cells [5]) | cell survival rate by cellular senescence induced by poly IC (stem cells [6]) |
| --- | --- | --- | --- | --- | --- | --- | --- | --- |
| O=C(Nc1nc2cccc(-c3ccc(CN4CCS(=O)(=O)CC4)cc3)n2n1)C1CC1 [filgotinib] | less increased | less decreased | less decreased | less increased | – | – | – | – |
| C[C@@H]1CCN(C(=O)CC#N)C[C@@H]1N(C)c1ncnc2[nH]ccc12 [tofacitinib] | less increased | less decreased | less decreased | less increased | significantly reduced | less increased | less decreased | less decreased |
